The values below come from patent publication US20150193575A1, “SYSTEMS AND METHODS OF SELECTING COMPOUNDS WITH REDUCED RISK OF CARDIOTOXICITY” (The Governors of the University of Alberta, priority 2013, published 2015).

Each structure is given as a SMILES string.

The target of one data set is hERG1 potassium channel (Homo sapiens, UniProt Q12809). The experiment in a line: in vitro. How it is done:
Mammalian cells expressing the hERG1 potassium channel were dispensed into 384-well planar arrays and hERG tail-currents were measured by whole-cell voltage-clamping. A range of concentrations (TBD) of the test compounds were then added to the cells and a second recording of the hERG current was made. The percent change in hERG current was calculated.
The experiments were performed on an IonWorks™ FIT instrument (Molecular Devices Corporation), which automatically performs electrophysiology measurements in 48 single cells simultaneously in a specialised 384-well plate (PatchPlate™). All cell suspensions, buffers and test compound solutions were at room temperature during the experiment.
The cells used were Chinese hamster ovary (CHO) cells stably transfected with hERG (cell-line obtained from Cytomyx, UK). A single-cell suspension was prepared in extracellular solution (Dulbecco's phosphate buffered saline with calcium and magnesium pH 7-7.2) and aliquots were added automatically to each well of a PatchPlate™. The cells were then positioned over a small hole at the bottom of each well by applying a vacuum beneath the plate to form an electrical seal. The vacuum was applied through a single compartment common to all wells which were filled with intracellular solution (buffered to pH 7.2 with HEPES). The resistance of each seal was measured via a common ground-electrode in the intracellular compartment and individual electrodes placed into each of the upper wells.
Electrical access to the cell was then achieved by circulating a perforating agent, amphotericin, underneath the PatchPlate™ and then measuring the pre-compound hERG current. An electrode was positioned in the extracellular compartment and a holding potential of −80 mV for 15 sec was applied. The hERG channels were then activated by applying a depolarising step to +40 mV for 5 sec and then clamped at −50 mV for 4 sec to elicit the hERG tail current, before returning to −80 mV for 0.3 s.
A test compound was then added automatically to the upper wells of the PatchPlate™ from a 96-well microtitre plate containing a range of concentrations of each compound. Solutions were prepared by diluting DMSO solutions of the test compound into extracellular buffer. The test compound was left in contact with the cells for 300 sec before recording currents using the same voltage-step protocol as in the pre-compound scan. […] Each concentration was tested in 4 replicate wells on the PatchPlate™.
Post-compound currents were then expressed as a percentage of pre-compound currents and plotted against concentration for each compound. Where concentration-dependent inhibition is observed, the data are fitted to the following equation and an IC50 value calculated: […]
An IC50 was reported if concentration-dependent inhibition is observed. The standard error (SE) of the IC50 model and the number of data-points used to determine IC50 was also reported.

The conditions of data set [1]: clinical trial, placed on clinical hold by the FDA; cited from earlier work.
The target in data set [2] is T1, hERG channel (Homo sapiens, UniProt Q12809). Briefly: Predictor hERG fluorescence polarization assay.
Method: Compounds that bind to the hERG channel proteins were identified by their ability to displace the tracer (Predictor hERG Tracer Red) and decrease the fluorescence polarization. The Tracer Red ligand was stored in 100% DMSO and diluted to 8 nM in assay buffer (50 mM Tris-HCl, 1 mM MgCl2, 10 mM KCl, 0.05% Pluronic F127, pH 7.4, 4° C.) on the day of the experiment. Test samples and controls were diluted in assay buffer to 16 concentrations with half-log intervals. Cell membranes were removed from the −80° C. freezer and placed on ice after defrosting. Membranes working solution protein concentration was 0.3 mg/mL. […] IC50 values were derived by fitting a sigmoidal function to concentration-response data, where concentration-dependent inhibition was observed. All IC50 data were calculated and analyzed using GraphPad Prism 6 (GraphPad Software).
In a further data set the target is hERG1 (Homo sapiens, UniProt Q12809). The experiment in a line: FluxOR potassium channel assay in HEK 293 cells stably expressing hERG1.
In data set [3] the target is T1, hERG channel. Briefly: Automated patch clamp (IonFlux) on AC10 cardiomyocytes stably expressing hERG. Conditions: for effect on hERG tail currents / electrophysiology (in words): AC10 cardiomyocytes.

hERG1 potassium channel, sequence (Q12809 whole entry): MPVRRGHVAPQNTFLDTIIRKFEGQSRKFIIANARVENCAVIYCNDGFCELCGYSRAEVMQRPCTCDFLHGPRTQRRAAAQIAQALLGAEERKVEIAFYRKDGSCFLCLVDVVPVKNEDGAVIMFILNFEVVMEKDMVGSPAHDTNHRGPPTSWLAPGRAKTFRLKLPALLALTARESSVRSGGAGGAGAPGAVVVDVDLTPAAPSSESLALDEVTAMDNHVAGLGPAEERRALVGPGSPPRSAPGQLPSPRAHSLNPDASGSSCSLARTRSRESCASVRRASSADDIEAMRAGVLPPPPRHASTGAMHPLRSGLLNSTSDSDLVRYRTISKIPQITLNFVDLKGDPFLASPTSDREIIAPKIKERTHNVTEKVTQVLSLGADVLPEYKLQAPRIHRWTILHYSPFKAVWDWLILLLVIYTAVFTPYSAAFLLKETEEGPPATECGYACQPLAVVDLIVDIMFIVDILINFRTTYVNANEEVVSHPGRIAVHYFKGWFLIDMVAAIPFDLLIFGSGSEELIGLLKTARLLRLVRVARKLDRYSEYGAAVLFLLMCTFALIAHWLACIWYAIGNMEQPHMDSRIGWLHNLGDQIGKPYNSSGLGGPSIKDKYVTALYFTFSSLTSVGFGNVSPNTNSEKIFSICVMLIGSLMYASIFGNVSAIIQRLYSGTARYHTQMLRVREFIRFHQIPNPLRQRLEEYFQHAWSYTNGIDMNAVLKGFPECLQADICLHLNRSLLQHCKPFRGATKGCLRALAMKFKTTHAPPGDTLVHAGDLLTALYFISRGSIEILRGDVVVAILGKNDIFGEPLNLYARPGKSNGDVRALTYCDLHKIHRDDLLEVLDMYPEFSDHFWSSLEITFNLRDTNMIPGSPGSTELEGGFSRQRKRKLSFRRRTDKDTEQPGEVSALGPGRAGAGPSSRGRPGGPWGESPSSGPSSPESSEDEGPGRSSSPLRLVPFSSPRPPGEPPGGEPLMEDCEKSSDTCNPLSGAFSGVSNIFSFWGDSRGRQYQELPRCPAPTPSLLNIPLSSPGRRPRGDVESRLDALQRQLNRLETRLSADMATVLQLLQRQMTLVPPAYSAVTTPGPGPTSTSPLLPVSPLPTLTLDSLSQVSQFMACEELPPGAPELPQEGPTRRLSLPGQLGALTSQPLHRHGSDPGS
T1 sequence (Q12809 whole entry): as above
hERG1, sequence (Q12809 whole entry): as above

Usually inhibition stands for the relative decrease from the control value, in per cent. With `O=c1[nH]c2ccccc2n1C1CCN(CCCC(c2ccc(F)cc2)c2ccc(F)cc2)CC1` [Pimozide], on hERG1 potassium channel (human), the inhibition at 300 sec, 0.00032 µM was 2.29%; the inhibition at 300 sec, 0.0016 µM was 4.56%; the inhibition at 300 sec, 0.008 µM was 5.6%; the inhibition at 300 sec, 0.04 µM came to 25.1%. Moreover, at hERG1 potassium channel (human), the inhibition at 300 sec, 0.2 µM came out at 9.44% and the inhibition at 300 sec, 1 µM worked out at 83.2%.

Turning to `CC(=O)Oc1ccccc1C(=O)O` [Aspirin, acetyl salicylic acid], at hERG1 potassium channel (human), the inhibition at 300 sec, 0.0032 µM was -2.97%; the inhibition at 300 sec, 0.016 µM is -3.09%; the inhibition at 300 sec, 0.08 µM was -21%; the inhibition at 300 sec, 0.4 µM is -5.88%. Further, at hERG1 potassium channel (human), the inhibition at 300 sec, 2 µM is -3.71% and the inhibition at 300 sec, 10 µM is -0.546%.

One may read the IC50 as the midpoint of a concentration-inhibition curve. `COc1nc(N)nc2c1ncn2C1O[C@H](COP(=O)(N[C@H](C)C(=O)OCC(C)(C)C)Oc2cccc3ccccc23)[C@@H](O)[C@@]1(C)O` (stereo partly drawn) [BMS-986094, (2R)-neopentyl 2-(((((2R,3R,4R)-5-(2-amino-6-methoxy-9H-purin-9-yl)-3,4-dihydroxy-4-methyltetrahydrofuran-2-yl)methoxy)(naphthalen-1-yloxy)phosphoryl)amino)propanoate]: the “effects on QT interval prolongation in patients (in words)” value in data set [1] was “nine patients in a clinical trial had to be hospitalized and one of them died”. Moreover, the IC50 on hERG channel [2] was 3 nM. Besides, the “block of conductance of the potassium channel (in words)” value on hERG1 is “block conductance of the potassium channel”. Further, at hERG channel [3], half-maximal inhibition (IC50) was put at 266 nM and the “effect on hERG tail currents / electrophysiology (in words)” value is on record as “potently blocks hERG tail currents”. Also, the “inhibition of the potassium channel (in words)” value on hERG1 potassium channel (CHO cells stably transfected with hERG) was “inhibit the potassium channel”. Moreover, at hERG1 potassium channel (human), the inhibition at 300 sec, 0.0032 µM worked out at 18.2%; the inhibition at 300 sec, 0.016 µM is -4.94%; the inhibition at 300 sec, 0.08 µM is -8.97%; the inhibition at 300 sec, 0.4 µM is -5.33%. Also, at hERG1 potassium channel (human), the inhibition at 300 sec, 10 µM was 23.3%.

On to `CS(=O)(=O)c1ccc(C2=C(c3ccccc3)C(=O)OC2)cc1` [rofecoxib], for which the IC50 at hERG channel [2] is 5830 nM; against hERG channel [3], 15000 nM.

On to `COc1nc(N)nc2c1ncn2[C@@H]1O[C@H](COP(=O)(N[C@@H](C)C(=O)OCC(C)(C)C)Oc2cccc3ccccc23)[C@@H](O)[C@@]1(C)O` (some centres unmarked) [BMS986094], for which the half-maximal inhibitory concentration (IC50) on hERG channel [2] is 3.75 nM; against hERG channel [3], 266 nM.

For the molecule `CC(C)NCC(O)c1ccc(NS(C)(=O)=O)cc1` (centres unmarked) [Sotalol], on hERG1 potassium channel (human), the inhibition at 300 sec, 0.0032 µM turned out to be 1.69%; the inhibition at 300 sec, 0.016 µM is -0.73%; the inhibition at 300 sec, 0.08 µM was determined as 20.4%; the inhibition at 300 sec, 0.4 µM came to 10.9%. In addition, at hERG1 potassium channel (human), the inhibition at 300 sec, 2 µM was 1.72% and the inhibition at 300 sec, 10 µM worked out at 0.95%.

In the case of `Nc1nc2c(ncn2[C@@H]2O[C@H](CO)[C@@H](O)[C@H]2O)c(=O)[nH]1` [Guanosine, guanosine], the “displacement of the hERG-bound dye (in words)” value at hERG channel [2] was “no detectable effect on hERG blockage”. For the same molecule, the “effect on hERG tail currents / electrophysiology (in words)” value at hERG channel [3] is reported as “none of BMS-986094 metabolites demonstrates either hERG cavity binding or electrophysiology changes”. For the same molecule, at hERG1 potassium channel (human), the inhibition at 300 sec, 0.0032 µM amounted to 0.711%; the inhibition at 300 sec, 0.016 µM stood at 6.12%; the inhibition at 300 sec, 0.08 µM was -3.46%; the inhibition at 300 sec, 0.4 µM was 26.3%. In addition, on hERG1 potassium channel (human), the inhibition at 300 sec, 2 µM was 0.453% and the inhibition at 300 sec, 10 µM worked out at 5.54%.
